# Patent US20240269304A1, “BCL-XL INHIBITOR ANTIBODY-DRUG CONJUGATES AND METHODS OF USE THEREOF” (Novartis AG, priority 2020, published 2024)
# Where two headings read alike, the source gives them in different places.
# System: H1650 cells
# Experiment: CellTiterGlo (CTG) cell viability, 3D, 120 h, H1650 (Example 8)
# Assay type: cell-based, human
# Protocol: H1650 cells were cultivated in RPMI supplemented with 10% heat inactivated fetal bovine serum, penicillin (100 IU/ml), streptomycin (100 μg/ml) and L-glutamine (2 mM). Cell lines were cultured at 37° C. in a humidified atmosphere containing 5% 002. Cells were seeded in 96 microwell round bottom plates (96 microwell Low attachment plates , Costar reference 7007) and exposed to the payloads or ADCs for 120 h (serially diluted; 9 concentrations each, duplicates). Effects of payloads or ADCs on cell viability were assessed after 5 days of incubation at 37° C./5% CO2 by quantification of cellular ATP levels using CellTiterGlo at 75 μL reagent/well. All the conditions were tested in duplicates. Luminescence was quantified on a multipurpose plate reader. IC50S were calculated using standard four-parametric curve fitting. […] Each experiment was performed at least twice, with results being reproducible.
# [1] = Homo sapiens, NCI-H1650, H1650 3D, experiment n1, read-out: H1650 3D CTG IC50 n1
# [2] = Homo sapiens, NCI-H1650, H1650 3D, experiment n2, read-out: H1650 3D CTG IC50 n2
# [3] = Homo sapiens, NCI-H1650, H1650 3D, mean of n1 and n2, read-out: H1650 3D CTG IC50 Mean of n1 and n2
SMILES,IC50 [1] [nM],IC50 [2] [nM],IC50 [3] [nM],"IC50 (H1650 3D, experiment n1, read-out: H1650 3D CTG IC50 n1) [nM]","IC50 (H1650 3D, experiment n2, read-out: H1650 3D CTG IC50 n2) [nM]","IC50 (H1650 3D, mean of n1 and n2, read-out: H1650 3D CTG IC50 Mean of n1 and n2) [nM]"
"Cc1c(Nc2nc3ccccc3s2)nnc2c1CCCN2c1ccc(-c2cnn(CC34CC5(C)CC(C)(C3)CC(OCCN(C)CCCC(=O)O)(C5)C4)c2C)c(C(=O)O)n1 [P57, 6-[3-(1,3-benzothiazol-2-ylamino)-4-methyl-6,7-dihydro-5H-pyrido[2,3-c]pyridazin-8-yl]-3-[1-[[3-[2-[3-carboxypropyl(methyl)amino]ethoxy]-5,7-dimethyl-1-adamantyl]methyl]-5-methyl-pyrazol-4-yl]pyridine-2-carboxylic acid]",6.75,14.3,10.5,,,
"Cc1c(Nc2nc3ccccc3s2)nnc2c1CCCN2c1ccc(-c2cnn(CC34CC5(C)CC(C)(C3)CC(OCCNCCC(=O)O)(C5)C4)c2C)c(C(=O)O)n1 [P71, 6-[3-(1,3-benzothiazol-2-ylamino)-4-methyl-6,7-dihydro-5H-pyrido[2,3-c]pyridazin-8-yl]-3-[1-[[3-[2-(2-carboxyethylamino)ethoxy]-5,7-dimethyl-1-adamantyl]methyl]-5-methyl-pyrazol-4-yl]pyridine-2-carboxylic acid]",16.3,13.4,14.8,,,
"CNCC#Cc1ccc(OCCCc2sc(N3CCCc4c3nnc(Nc3nc5ccccc5s3)c4C)nc2C(=O)O)c(F)c1 [P3, 2-{3-[(1,3-Benzothiazol-2-yl)amino]-4-methyl-5H,6H,7H,8H-pyrido[2,3-c]pyridazin-8-yl}-5-(3-{2-fluoro-4-[3-(methylamino)prop-1-yn-1-yl]phenoxy}propyl)-1,3-thiazole-4-carboxylic acid]",4,28,16,,,
"Cc1c(Nc2nc3ccccc3s2)nnc2c1CCCN2c1nc(C(=O)O)c(CCCOc2ccc(C#CCN(C)C)cc2)s1 [P28, 2-[3-(1,3-benzothiazol-2-ylamino)-4-methyl-6,7-dihydro-5H-pyrido[2,3-c]pyridazin-8-yl]-5-[3-[4-[3-(dimethylamino)prop-1-ynyl]phenoxy]propyl]thiazole-4-carboxylic acid]",0.39,0.18,0.29,,,
"Cc1c(Nc2nc3cc(F)ccc3s2)nnc2c1CCCN2c1ccc(-c2cnn(CC34CC5(C)CC(C)(C3)CC(OCCN3CCCC3)(C5)C4)c2C)c(C(=O)O)n1 [P63, 3-[1-[[3,5-dimethyl-7-(2-pyrrolidin-1-ylethoxy)-1-adamantyl]methyl]-5-methyl-pyrazol-4-yl]-6-[3-[(5-fluoro-1,3-benzothiazol-2-yl)amino]-4-methyl-6,7-dihydro-5H-pyrido[2,3-c]pyridazin-8-yl]pyridine-2-carboxylic acid]",3.73,2.03,2.88,,,
"Cc1c(Nc2nc3ccccc3s2)nnc2c1CCCN2c1ccc(-c2cnn(CC34CC5(C)CC(C)(CC(CCCNCC(=O)O)(C5)C3)C4)c2C)c(C(=O)O)n1 [P53, 6-[3-(1,3-benzothiazol-2-ylamino)-4-methyl-6,7-dihydro-5H-pyrido[2,3-c]pyridazin-8-yl]-3-[1-[[3-[3-(carboxymethylamino)propyl]-5,7-dimethyl-1-adamantyl]methyl]-5-methyl-pyrazol-4-yl]pyridine-2-carboxylic acid]",37.7,35,36.4,,,
"Cc1c(Nc2nc3ccccc3s2)nnc2c1CCCN2c1ccc(-c2cnn(CC34CC5(C)CC(C)(CC(CCCN(C)CC(=O)O)(C5)C3)C4)c2C)c(C(=O)O)n1 [P55, 6-[3-(1,3-benzothiazol-2-ylamino)-4-methyl-6,7-dihydro-5H-pyrido[2,3-c]pyridazin-8-yl]-3-[1-[[3-[3-[carboxymethyl(methyl)amino]propyl]-5,7-dimethyl-1-adamantyl]methyl]-5-methyl-pyrazol-4-yl]pyridine-2-carboxylic acid]",6.15,6.88,6.51,,,
"Cc1c(Nc2nc3ccccc3s2)nnc2c1CCCN2c1ccc(-c2cnn(CC34CC5(C)CC(C)(C3)CC(OCCN3CCCC3)(C5)C4)c2C)c(C(=O)NC(C)C)n1 [P75, 6-[3-(1,3-benzothiazol-2-ylamino)-4-methyl-6,7-dihydro-5H-pyrido[2,3-c]pyridazin-8-yl]-3-[1-[[3,5-dimethyl-7-(2-pyrrolidin-1-ylethoxy)-1-adamantyl]methyl]-5-methyl-pyrazol-4-yl]-N-isopropyl-pyridine-2-carboxamide]",2.3,3.03,2.67,,,
"Cc1c(Nc2nc3ccccc3s2)nnc2c1CCCN2c1ccc(-c2cnn(C[C@]34C[C@]5(C)C[C@](C)(C3)C[C@@](OCCN(C)C)(C5)C4)c2C)c(C(=O)O)n1 [P27, 6-{3-[(1,3-benzothiazol-2-yl)amino]-4-methyl-6,7-dihydropyrido[2,3-c]pyridazin-8(5H)-yl}-3-[1-({3-[2-(dimethylamino)ethoxy]-5,7-dimethyladamantan-1-yl}methyl)-5-methyl-1H-pyrazol-4-yl]pyridine-2-carboxylic acid]",0.22,0.3,0.26,,,
"Cc1c(Nc2nc3ccccc3s2)nnc2c1CCCN2c1ccc(-c2cnn(CC34CC5(C)CC(C)(C3)CC(OCCN3CCCC3)(C5)C4)c2C)c(C(=O)N2CCCC2)n1 [P74, [6-[3-(1,3-benzothiazol-2-ylamino)-4-methyl-6,7-dihydro-5H-pyrido[2,3-c]pyridazin-8-yl]-3-[1-[[3,5-dimethyl-7-(2-pyrrolidin-1-ylethoxy)-1-adamantyl]methyl]-5-methyl-pyrazol-4-yl]-2-pyridyl]-pyrrolidin-1-yl-methanone]",2,1.86,1.93,,,
"Cc1c(Nc2nc3ccccc3s2)nnc2c1CCCN2c1ccc(-c2cnn(CC34CC5(C)CC(C)(C3)CC(OCCN3CCCC3)(C5)C4)c2C)c(C(N)=O)n1 [P76, 6-[3-(1,3-benzothiazol-2-ylamino)-4-methyl-6,7-dihydro-5H-pyrido[2,3-c]pyridazin-8-yl]-3-[1-[[3,5-dimethyl-7-(2-pyrrolidin-1-ylethoxy)-1-adamantyl]methyl]-5-methyl-pyrazol-4-yl]pyridine-2-carboxamide]",2,3.87,2.94,,,
Cc1cc(N(C)c2nc(C(=O)[O-])c(CCCOc3ccc(C#CC[N+](C)(C)Cc4ccc(O[C@@H]5O[C@H](C(=O)O)[C@@H](O)[C@H](O)[C@H]5O)c(NC(=O)CCNC(=O)CCOCCN5C(=O)CC(C)C5=O)c4)cc3F)s2)nnc1Nc1nc2ccccc2s1 (some centres unmarked) [Ab C - L108A-P2],,,,2.1,0.97,1.54
"Cc1c(Nc2nc3ccccc3s2)nnc2c1CCCN2c1nc(C(=O)O)c(CCCOc2ccc(C#CCN3CCCCC3)cc2F)s1 [P18, 2-[3-(1,3-Benzothiazol-2-ylamino)-4-methyl-6,7-dihydro-5H-pyrido[2,3-c]pyridazin-8-yl]-5-[3-[2-fluoro-4-[3-(1-piperidyl)prop-1-ynyl]phenoxy]propyl]thiazole-4-carboxylic acid]",1.8,3.5,2.65,,,
"Cc1c(Nc2nc3ccccc3s2)nnc2c1CCCN2c1nc(C(=O)O)c(CCCOc2ccc(C#CCNCCN(C)C)cc2F)s1 [P12, 2-[3-(1,3-Benzothiazol-2-ylamino)-4-methyl-6,7-dihydro-5H-pyrido[2,3-c]pyridazin-8-yl]-5-[3-[4-[3-[2-(dimethylamino)ethylamino]prop-1-ynyl]-2-fluoro-phenoxy]propyl]thiazole-4-carboxylic acid]",0.95,2,1.48,,,
"Cc1c(Nc2nc3ccccc3s2)nnc2c1CCCN2c1ccc(-c2cnn(CC34CC5(C)CC(C)(C3)CC(OCCN3CCCC3)(C5)C4)c2C)c(CO)n1 [P73, [6-[3-(1,3-benzothiazol-2-ylamino)-4-methyl-6,7-dihydro-5H-pyrido[2,3-c]pyridazin-8-yl]-3-[1-[[3,5-dimethyl-7-(2-pyrrolidin-1-ylethoxy)-1-adamantyl]methyl]-5-methyl-pyrazol-4-yl]-2-pyridyl]methanol]",8.6,9.41,9.01,,,
"Cc1c(Nc2nc3ccccc3s2)nnc2c1CCCN2c1ccc(-c2cnn(C[C@]34C[C@]5(C)C[C@](C)(C3)C[C@@](OCCN(C)CCO)(C5)C4)c2C)c(C(=O)O)n1 [P35, 6-[3-(1,3-benzothiazol-2-ylamino)-4-methyl-6,7-dihydro-5H-pyrido[2,3-c]pyridazin-8-yl]-3-[1-[[3-[2-[2-hydroxyethyl(methyl)amino]ethoxy]-5,7-dimethyl-1-adamantyl]methyl]-5-methyl-pyrazol-4-yl]pyridine-2-carboxylic acid]",0.23,0.27,0.25,,,
"Cc1c(Nc2nc3ccccc3s2)nnc2c1CCCN2c1ccc(-c2cnn(CC34CC5(C)CC(C)(C3)CC(OCCN(C)CCCO)(C5)C4)c2C)c(C(=O)O)n1 [P62, 6-[3-(1,3-benzothiazol-2-ylamino)-4-methyl-6,7-dihydro-5H-pyrido[2,3-c]pyridazin-8-yl]-3-[1-[[3-[2-[3-hydroxypropyl(methyl)amino]ethoxy]-5,7-dimethyl-1-adamantyl]methyl]-5-methyl-pyrazol-4-yl]pyridine-2-carboxylic acid]",0.52,,0.52,,,
